The record followed here is article PMC3640414 (Journal of Medicinal Chemistry, 2013).

Experiment [1] deals with H1975 (lung adenocarcinoma) cells. Briefly: MTS cytotoxicity assay, H1975 cells. It counts as cell-based. Particulars: 100 μM, 72 h. The text has this:
(§1) We also investigated the effects of 8 and 9 in two lung adenocarcinoma cell lines, A549 and H1975. […] H1975 appeared to be somewhat more sensitive to these compounds, a finding confirmed by a clonogenic survival assay (Supporting Information Figure S5).
(§2) Viability of MV4;11, H549, and H1975 cells was monitored by MTS-based CellTiter 96 AQueous nonradioactive cell proliferation assay (Promega, Madison, WI). Viability of U2OS and HeLa cells was monitored by WST-based cell proliferation kit (Roche, Mannheim, Germany). Further details are provided in Supporting Information

The test system of experiment [2] is A549 (lung adenocarcinoma) cells. In words: MTS cytotoxicity assay, A549 cells. It counts as cell-based. The note with it: 100 μM, 72 h.
Text: as §1, §2

Experiment [3] has as its target T1, BRD4(1) (Homo sapiens, UniProt O60885).
T1 construct: amplify the N-terminal bromodomain region of the protein; made in house
In words: AlphaScreen peptide displacement assay (ALPHA), BRD4(1). It counts as binding. In general terms: Bead proximity is the source of the signal in Alpha formats.

Experiment [4] deals with MV4;11 (AML) cells. In words: MTS cytotoxicity assay, MV4;11 cells. It counts as cell-based. The note with it: Homo sapiens, viability after 72 h. (In general: Tetrazolium dyes change colour on reduction, which living cells bring about.)
Experiment [5] concerns the target bromodomain of cAMP response element binding protein (CREB) binding protein (UniProt Q92793 1081-1197). In words: AlphaScreen or HTRF; peptide displacement ALPHA assay; CREBBP bromodomain and biotinylated H3K56Ac peptide, protein and peptide concentration 200 nM (Table 1) or 50 nM (Table 2); small-molecule competitors; duplicate on the same plate. The note with it: both partners purified.

Chain of bromodomain of cAMP response element binding protein (CREB) binding protein (Q92793 1081-1197): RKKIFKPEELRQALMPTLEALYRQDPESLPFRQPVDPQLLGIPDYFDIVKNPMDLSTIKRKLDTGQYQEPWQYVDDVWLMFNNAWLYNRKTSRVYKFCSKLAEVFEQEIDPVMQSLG

For `CC(=O)Oc1cc(-c2c(C)noc2C)cc(C(O)c2ccccc2)c1` (stereo not drawn) [Compound 9, 3-(3,5-Dimethylisoxazol-4-yl)-5-(hydroxy(phenyl)methyl)phenyl Acetate], the “effect on viability of H1975 cells” value in experiment [1] was “markedly reduced the viability”. For the same molecule, the “effect on viability of A549 cells” value in experiment [2] is on record as “markedly reduced the viability”.

With `CCOc1cc(-c2c(C)noc2C)cc(C(O)c2ccccc2)c1` (stereo not drawn) [Compound 12, (3-(3,5-Dimethylisoxazol-4-yl)-5-ethoxyphenyl)(phenyl)methanol], the “selectivity for BRD4(1) over CREBBP bromodomain” value in experiment [3] (comparison of ALPHA IC50 values) is reported as “approximately 6 fold”. Further, in experiment [3] (for BRD4(1)), the ligand efficiency is on record as 0.36.

In experiment [4], `CN1CCC(CNc2ccc3ncc(-c4cccc(OC(F)(F)F)c4)n3n2)CC1` [SGI-1176, SGI-1776] registered an IC50 of 53 nM.

B1: H3K56Ac peptide (peptide)
peptide: ALREIRRYQKSTELLIRKLK
modifications: K(Ac) (acetyl-lysine) at the 10th residue (K56 of histone H3 by the peptide's name); K(biotin) at the C-terminal lysine
As for B1, the binding result in experiment [5] is listed as “binds”.

What is called IC50 is the concentration at which inhibition is half-maximal. A higher IC50 goes with weaker potency in that assay.
